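All cell lines were grown in 96-well plates and treated with compound for 48 hours. GI50 marks 50% less growth.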 Activity calls are given as the source filed them. No stated cut-off is given here; in the data, active = GI50 up to about 1.1 µM and inactive = higher.
How the values were obtained:
Assay in all cases: NCI-60 cell line screen, 48 h
786-0 = test system: 786-0
A498 = test system: A498
A549 = test system: A549
ACHN = test system: ACHN
CAKI-1 = test system: CAKI-1
CCRF-CEM = test system: CCRF-CEM
COLO 205 = test system: COLO 205
DLD-1 = test system: DLD-1
DMS-114 = test system: DMS-114
HCT-116 = test system: HCT-116
HCT-15 = test system: HCT-15
HL-60 = test system: HL-60
HOP-18 = test system: HOP-18
HOP-62 = test system: HOP-62
HOP-92 = test system: HOP-92
HT-29 = test system: HT-29
IGROV-1 = test system: IGROV-1
K562 = test system: K562
KM-20L2 = test system: KM-20L2
KM12 = test system: KM12
LOX IMVI = test system: LOX IMVI
LXFL 529 = test system: LXFL 529
M14 = test system: M14
M19-MEL = test system: M19-MEL
MOLT-4 = test system: MOLT-4
Malme-3M = test system: Malme-3M
NCI-H226 = test system: NCI-H226
NCI-H23 = test system: NCI-H23
NCI-H460 = test system: NCI-H460
NCI-H522 = test system: NCI-H522
OVCAR-3 = test system: OVCAR-3
OVCAR-4 = test system: OVCAR-4
OVCAR-5 = test system: OVCAR-5
OVCAR-8 = test system: OVCAR-8
RPMI-8226 = test system: RPMI-8226
RXF 631 = test system: RXF 631
SF-268 = test system: SF-268
SF-295 = test system: SF-295
SF-539 = test system: SF-539
SK-MEL-28 = test system: SK-MEL-28
SK-MEL-2 = test system: SK-MEL-2
SK-MEL-5 = test system: SK-MEL-5
SK-OV-3 = test system: SK-OV-3
SN12C = test system: SN12C
SNB-19 = test system: SNB-19
SNB-75 = test system: SNB-75
SNB-78 = test system: SNB-78
SR = test system: SR
SW-620 = test system: SW-620
TK-10 = test system: TK-10
U-251 = test system: U-251
UACC-257 = test system: UACC-257
UACC-62 = test system: UACC-62
UO-31 = test system: UO-31
DMS-273 = test system: DMS-273
EKVX = test system: EKVX
HCC 2998 = test system: HCC 2998
RXF 393 = test system: RXF 393
XF498 = test system: XF498

SMILES: CC(=O)OCC1OC(Nc2nc(O)n(C)c(=O)c2-c2csc(N)n2)C(OC(C)=O)C(OC(C)=O)C1OC(C)=O (centres undefined)
- GI50 (786-0): > 100 µM (inactive)
- GI50 (A498): > 100 µM (inactive)
- GI50 (A549): > 100 µM (inactive)
- GI50 (ACHN): > 100 µM (inactive)
- GI50 (CAKI-1): > 100 µM (inactive)
- GI50 (CCRF-CEM): 67.6 µM (inactive)
- GI50 (COLO 205): > 100 µM (inactive)
- GI50 (DLD-1): > 100 µM (inactive)
- GI50 (DMS-114): > 100 µM (inactive)
- GI50 (HCT-116): > 100 µM (inactive)
- GI50 (HCT-15): > 100 µM
- GI50 (HL-60): 70 µM (inactive)
- GI50 (HOP-18): 20 µM (inactive)
- GI50 (HOP-62): > 100 µM (inactive)
- GI50 (HOP-92): > 100 µM (inactive)
- GI50 (HT-29): > 100 µM (inactive)
- GI50 (IGROV-1): > 100 µM (inactive)
- GI50 (K562): > 100 µM (inactive)
- GI50 (KM-20L2): > 100 µM (inactive)
- GI50 (KM12): > 100 µM (inactive)
- GI50 (LOX IMVI): > 100 µM (inactive)
- GI50 (LXFL 529): > 100 µM (inactive)
- GI50 (M14): > 100 µM (inactive)
- GI50 (M19-MEL): > 100 µM (inactive)
- GI50 (MOLT-4): > 100 µM (inactive)
- GI50 (Malme-3M): > 100 µM (inactive)
- GI50 (NCI-H226): > 100 µM (inactive)
- GI50 (NCI-H23): > 100 µM (inactive)
- GI50 (NCI-H460): > 100 µM (inactive)
- GI50 (NCI-H522): > 100 µM (inactive)
- GI50 (OVCAR-3): > 100 µM (inactive)
- GI50 (OVCAR-4): > 100 µM (inactive)
- GI50 (OVCAR-5): > 100 µM (inactive)
- GI50 (OVCAR-8): > 100 µM (inactive)
- GI50 (RPMI-8226): > 100 µM (inactive)
- GI50 (RXF 631): > 100 µM (inactive)
- GI50 (SF-268): > 100 µM (inactive)
- GI50 (SF-295): > 100 µM (inactive)
- GI50 (SF-539): > 100 µM (inactive)
- GI50 (SK-MEL-28): > 100 µM (inactive)
- GI50 (SK-MEL-2): > 100 µM (inactive)
- GI50 (SK-MEL-5): > 100 µM (inactive)
- GI50 (SK-OV-3): > 100 µM (inactive)
- GI50 (SN12C): > 100 µM (inactive)
- GI50 (SNB-19): > 100 µM (inactive)
- GI50 (SNB-75): > 100 µM (inactive)
- GI50 (SNB-78): > 100 µM (inactive)
- GI50 (SR): > 100 µM (inactive)
- GI50 (SW-620): > 100 µM (inactive)
- GI50 (TK-10): > 100 µM (inactive)
- GI50 (U-251): > 100 µM (inactive)
- GI50 (UACC-257): > 100 µM (inactive)
- GI50 (UACC-62): > 100 µM (inactive)
- GI50 (UO-31): > 100 µM (inactive)

SMILES: CCOc1ccc(OCC(=O)O)c2c1CCCC2=O
- GI50 (786-0): > 100 µM (inactive)
- GI50 (A498): > 100 µM (inactive)
- GI50 (A549): > 100 µM (inactive)
- GI50 (ACHN): > 100 µM (inactive)
- GI50 (CCRF-CEM): > 10 µM (inactive)
- GI50 (COLO 205): > 100 µM (inactive)
- GI50 (DLD-1): > 100 µM (inactive)
- GI50 (DMS-114): > 100 µM (inactive)
- GI50 (DMS-273): > 100 µM (inactive)
- GI50 (EKVX): > 100 µM (inactive)
- GI50 (HCC 2998): > 100 µM (inactive)
- GI50 (HCT-15): > 100 µM
- GI50 (HL-60): > 100 µM (inactive)
- GI50 (HOP-62): > 100 µM (inactive)
- GI50 (HOP-92): > 100 µM (inactive)
- GI50 (HT-29): > 100 µM (inactive)
- GI50 (IGROV-1): > 100 µM (inactive)
- GI50 (K562): > 10 µM (inactive)
- GI50 (KM12): > 100 µM (inactive)
- GI50 (LOX IMVI): > 100 µM (inactive)
- GI50 (LXFL 529): > 100 µM (inactive)
- GI50 (M14): > 100 µM (inactive)
- GI50 (M19-MEL): > 100 µM (inactive)
- GI50 (MOLT-4): > 100 µM (inactive)
- GI50 (Malme-3M): > 100 µM (inactive)
- GI50 (NCI-H226): > 100 µM (inactive)
- GI50 (NCI-H23): > 100 µM (inactive)
- GI50 (NCI-H460): > 100 µM (inactive)
- GI50 (NCI-H522): > 100 µM (inactive)
- GI50 (OVCAR-3): > 100 µM (inactive)
- GI50 (OVCAR-4): > 100 µM (inactive)
- GI50 (OVCAR-5): > 100 µM (inactive)
- GI50 (OVCAR-8): > 100 µM (inactive)
- GI50 (RPMI-8226): > 100 µM (inactive)
- GI50 (RXF 393): > 100 µM (inactive)
- GI50 (RXF 631): > 100 µM (inactive)
- GI50 (SF-268): > 100 µM (inactive)
- GI50 (SF-295): > 100 µM (inactive)
- GI50 (SF-539): > 100 µM (inactive)
- GI50 (SK-MEL-28): > 100 µM (inactive)
- GI50 (SK-MEL-2): > 100 µM (inactive)
- GI50 (SK-MEL-5): > 100 µM (inactive)
- GI50 (SK-OV-3): > 100 µM (inactive)
- GI50 (SN12C): > 100 µM (inactive)
- GI50 (SNB-19): > 100 µM (inactive)
- GI50 (SNB-75): > 100 µM (inactive)
- GI50 (SNB-78): > 100 µM (inactive)
- GI50 (SR): > 100 µM (inactive)
- GI50 (SW-620): > 100 µM (inactive)
- GI50 (TK-10): > 100 µM (inactive)
- GI50 (U-251): > 100 µM (inactive)
- GI50 (UACC-257): > 100 µM (inactive)
- GI50 (UACC-62): > 100 µM (inactive)
- GI50 (UO-31): > 100 µM (inactive)
- GI50 (XF498): > 100 µM (inactive)

Reference: ChEMBL document CHEMBL1201862, “PubChem BioAssay data set” (2004)
